{"source": "patent US20140094465A1", "about": "“Compounds as S-Nitrosoglutathione Reductase Inhibitors” (N30 PHARMACEUTICALS, INC., priority 2011, published 2014)"}
{"molecular_target": "T1, S-nitrosoglutathione reductase (GSNOR) (Homo sapiens, UniProt P11766)", "T1 construct": "made in house; host or cells: E. coli", "T1 sequence (P11766 whole entry)": "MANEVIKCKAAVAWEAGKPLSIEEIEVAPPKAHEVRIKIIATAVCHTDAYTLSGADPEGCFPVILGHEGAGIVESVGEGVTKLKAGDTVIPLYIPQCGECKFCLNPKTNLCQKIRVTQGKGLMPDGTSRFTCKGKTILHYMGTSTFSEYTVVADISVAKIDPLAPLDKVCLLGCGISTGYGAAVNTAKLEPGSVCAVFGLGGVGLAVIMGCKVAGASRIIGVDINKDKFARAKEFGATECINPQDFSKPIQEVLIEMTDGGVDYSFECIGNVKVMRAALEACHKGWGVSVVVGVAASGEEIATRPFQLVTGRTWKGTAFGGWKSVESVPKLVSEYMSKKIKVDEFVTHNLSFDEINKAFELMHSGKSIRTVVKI", "test": "GSNOR assay (inhibition of GSNOR activity, NADH absorbance at 340 nm)", "type": "biochemical", "details": "GSNOR inhibitor activity, Tables 1-6; read-out: IC50 range", "procedure": "Various compounds were tested in vitro for their ability to inhibit GSNOR activity.\nGSNOR expression and purification is described in Biochemistry 2000, 39, 10720-10729.\nPre-cultures were grown from stabs of a GSNOR glycerol stock in 2XYT media containing 100 ug/ml ampicillin after an overnight incubation at 37° C. […] GSNOR expression was induced with 0.1% arabinose in an overnight incubation at 20° C.\nE. coli cell paste was lysed by nitrogen cavitation and the clarified lysate purified by Ni affinity chromatography on an AKTA FPLC (Amersham Pharmacia). The column was eluted in 20 mM Tris pH 8.0/250 mM NaCl with a 0-500 mM imidazole gradient. Eluted GSNOR fractions containing the Smt-GSNOR fusion were digested overnight with Ulp-1 at 4° C. to remove the affinity tag then re-run on the Ni column under the same conditions. GSNOR was recovered in the flowthrough fraction and for crystallography is further purified by Q-Sepharose and Heparin flowthrough chromatography in 20 mM Tris pH 8.0, 1 mM DTT, 10 uM ZnSO4.\nGSNOR assay: GSNO and enzyme/NADH Solutions are made up fresh each day. The solutions are filtered and allowed to warm to room temperature. GSNO solution: 100 mM NaPO4 (pH 7.4), 0.480 mM GSNO. 396 μL of GSNO Solution is added to a cuvette followed by 8 μL of test compound in DMSO (or DMSO only for full reaction control) and mixed with the pipette tip. Compounds to be tested are made up at a stock concentration of 10 mM in 100% DMSO. 2 fold serial dilutions are done in 100% DMSO. 8 μL of each dilution are added to an assay so that the final concentration of DMSO in the assay is 1%. The concentrations of compounds tested range from 100 to 0.003 μM. Enzyme/NADH solution: 100 mM NaPO4 (pH 7.4), 0.600 mM NADH, 1.0 μg/mL GSNO Reductase. 396 μL of the Enzyme/NADH solution is added to the cuvette to start the reaction. The cuvette is placed in the Cary 3E UV/Visible Spectrophotometer and the change in 340 nm absorbance/min at 25° C. is recorded for 3 minutes. The assays are done in triplicate for each compound concentration. IC50's for each compound are calculated using the standard curve analysis in the Enzyme Kinetics Module of SigmaPlot.\nFinal assay conditions: 100 mM NaPO4, pH 7.4, 0.240 mM GSNO, 0.300 mM NADH, 0.5 μg/mL GSNO Reductase, and 1% DMSO. Final volume: 800 μL/cuvette.", "units": {"IC50": "µM"}}
{"molecule": "Cc1cc2cc(O)ccc2nc1-c1ccc(C(=O)O)cc1", "note": "[Compound I-1]", "IC50": "< 0.1"}
{"molecule": "Cc1cc2cc(O)ccc2nc1-c1ccc(-c2nnn[nH]2)cc1", "note": "[Compound I-2]", "IC50": "< 0.1"}
{"molecule": "O=C(O)C1CCN(c2ccc3cc(O)ccc3n2)CC1", "note": "[Compound I-5]", "IC50": "1 to 10"}
{"molecule": "O=C(O)C1CCC(c2ccc3cc(O)ccc3n2)CC1", "note": "(centres unmarked) [Compound I-6]", "IC50": "0.1 to 1"}
{"molecule": "O=C(O)c1ccc(-c2ccc3cc(O)ccc3n2)cc1Cl", "note": "[Compound I-9]", "IC50": "1 to 10"}
{"molecule": "O=C(O)c1ccc(-c2ccc3cc(O)ccc3n2)cc1F", "note": "[Compound I-10]", "IC50": "< 0.1"}
{"molecule": "Oc1ccc2nc(-c3ccc(-c4nn[nH]n4)cc3)cc(Cl)c2c1", "note": "[Compound I-11]", "IC50": "< 0.1"}
{"molecule": "O=c1nc(-c2ccc(-c3ccc4cc(O)ccc4n3)cc2)[nH]o1", "note": "[Compound I-12]", "IC50": "< 0.1"}
{"molecule": "COc1cc(C(=O)O)ccc1-c1ccc2cc(O)ccc2n1", "note": "[Compound I-14]", "IC50": "< 0.1"}
{"molecule": "O=C(O)c1ccc(-c2ccc3cc(O)ccc3n2)s1", "note": "[Compound I-15]", "IC50": "1 to 10"}
{"molecule": "O=C(O)C1CC=C(c2ccc3cc(O)ccc3n2)CC1", "note": "(centres unmarked) [Compound I-16]", "IC50": "0.1 to 1"}
{"molecule": "O=c1nc(-c2ccc(-c3ccc4cc(O)ccc4n3)cc2F)[nH]o1", "note": "[Compound I-20]", "IC50": "< 0.1"}
{"molecule": "O=c1nc(-c2ccc(-c3ccc4cc(O)ccc4n3)c(F)c2)[nH]o1", "note": "[Compound I-21]", "IC50": "< 0.1"}
{"molecule": "Oc1ccc2nc(-c3ccc(-c4nn[nH]n4)cc3Cl)ccc2c1", "note": "[Compound I-23]", "IC50": "< 0.1"}
{"molecule": "O=c1[nH]nc(-c2ccc(-c3ccc4cc(O)ccc4n3)cc2)o1", "note": "[Compound I-24]", "IC50": "< 0.1"}
{"molecule": "CN(C)c1cc(C(=O)O)ccc1-c1ccc2cc(O)ccc2n1", "note": "[Compound I-25]", "IC50": "< 0.1"}
{"molecule": "O=C(O)c1ccc(-c2cc(F)c3cc(O)ccc3n2)cc1", "note": "[Compound I-26, 4-(4-fluoro-6-hydroxyquinolin-2-yl)benzoic acid]", "IC50": "< 0.1"}
{"molecule": "O=c1nc(-c2ccc(-c3ccc4cc(O)ccc4n3)cc2)[nH]s1", "note": "[Compound I-29]", "IC50": "0.1 to 1"}
{"molecule": "O=C(O)c1ccc(-c2ccc3cc(O)ccc3n2)c(C(F)(F)F)c1", "note": "[Compound I-30]", "IC50": "< 0.1"}
{"molecule": "O=c1[nH]nc(-c2ccc(-c3ccc4cc(O)ccc4n3)cc2)s1", "note": "[Compound I-33]", "IC50": "0.1 to 1"}
{"molecule": "O=c1nc(-c2ccc(-c3ccc4cc(O)ccc4n3)cc2)o[nH]1", "note": "[Compound I-34]", "IC50": "0.1 to 1"}
{"molecule": "O=C(O)[C@H]1CC[C@H](c2nc3ccc(O)cc3cc2Cl)CC1", "note": "[Compound I-35]", "IC50": "0.1 to 1"}
{"molecule": "O=C(O)c1ccc(-c2cc(F)c3cc(O)ccc3n2)c(Cl)c1", "note": "[Compound I-37, 3-chloro-4-(4-fluoro-6-hydroxyquinolin-2-yl)benzoic acid]", "IC50": "< 0.1"}
{"molecule": "Oc1ccc2nc(-c3ccc(-c4nn[nH]n4)s3)ccc2c1", "note": "[Compound I-38]", "IC50": "0.1 to 1"}
{"molecule": "O=c1nc(-c2ccc(-c3ccc4cc(O)ccc4n3)cc2)s[nH]1", "note": "[Compound I-39]", "IC50": "0.1 to 1"}
{"molecule": "O=C(O)c1ccc(-c2cc(F)c3cc(O)ccc3n2)c(F)c1", "note": "[Compound I-40, 3-fluoro-4-(4-fluoro-6-hydroxyquinolin-2-yl)benzoic acid]", "IC50": "< 0.1"}
{"molecule": "O=C(O)C1CCN(c2nc3ccc(O)cc3cc2C(F)(F)F)CC1", "note": "[Compound I-41]", "IC50": "< 0.1"}
{"molecule": "O=C(O)[C@H]1CC[C@H](c2nc3ccc(O)cc3cc2C(F)(F)F)CC1", "note": "[Compound I-43]", "IC50": "< 0.1"}
{"molecule": "O=C(O)[C@H]1CC[C@@H](c2nc3ccc(O)cc3cc2C(F)(F)F)CC1", "note": "[Compound I-44]", "IC50": "1 to 10"}
{"molecule": "O=C(O)c1ccc(-c2ccc3c(Br)c(O)ccc3n2)cc1", "note": "[Compound I-45, 4-(5-bromo-6-hydroxyquinolin-2-yl)benzoic acid]", "IC50": "0.1 to 1"}
{"molecule": "O=C(O)c1ccc(-c2ccc3cc(O)ccc3n2)c(Br)c1", "note": "[Compound I-46, 3-bromo-4-(6-hydroxyquinolin-2-yl)benzoic acid]", "IC50": "< 0.1"}
{"molecule": "CN(C)c1cc(-c2ccc(C(=O)O)cc2)nc2ccc(O)cc12", "note": "[Compound I-47, 4-(4-(dimethylamino)-6-hydroxyquinolin-2-yl)benzoic acid]", "IC50": "0.1 to 1"}
{"molecule": "COc1cc(C(=O)O)ccc1-c1cc(F)c2cc(O)ccc2n1", "note": "[Compound I-48, 4-(4-fluoro-6-hydroxyquinolin-2-yl)-3-methoxybenzoic acid]", "IC50": "< 0.1"}
{"molecule": "N#Cc1cc(C(=O)O)ccc1-c1ccc2cc(O)ccc2n1", "note": "[Compound I-49, 3-cyano-4-(6-hydroxyquinolin-2-yl)benzoic acid]", "IC50": "< 0.1"}
{"molecule": "O=C(O)c1ccc(-c2ccc3cc(O)ccc3[n+]2[O-])c(Cl)c1", "note": "[Compound I-50, 2-(4-carboxy-2-chlorophenyl)-6-hydroxyquinoline 1-oxide]", "IC50": "0.1 to 1"}
{"molecule": "Nc1cc(-c2ccc(C(=O)O)cc2)nc2ccc(O)cc12", "note": "[Compound I-51, 4-(4-amino-6-hydroxyquinolin-2-yl)benzoic acid]", "IC50": "1 to 10"}
{"molecule": "N#Cc1cc2cc(O)ccc2nc1-c1ccc(C(=O)O)cc1", "note": "[Compound I-52, 4-(3-cyano-6-hydroxyquinolin-2-yl)benzoic acid]", "IC50": "< 0.1"}
{"molecule": "O=C(O)c1ccc(-c2ccc3c(F)c(O)ccc3n2)cc1", "note": "[Compound I-53, 4-(5-fluoro-6-hydroxyquinolin-2-yl)benzoic acid]", "IC50": "< 0.1"}
{"molecule": "O=C(O)c1ccc(-c2ccc3cc(O)cc(F)c3n2)cc1", "note": "[Compound I-54, 4-(8-fluoro-6-hydroxyquinolin-2-yl)benzoic acid]", "IC50": "< 0.1"}
{"molecule": "O=C(O)c1ccc(-c2ccc3cc(O)ccc3n2)c(O)c1", "note": "[Compound I-55, 3-hydroxy-4-(6-hydroxyquinolin-2-yl)benzoic acid]", "IC50": "< 0.1"}
{"molecule": "O=C(O)c1ccc(-c2ccc3c(F)c(O)ccc3n2)c(F)c1", "note": "[Compound I-56]", "IC50": "< 0.1"}
{"molecule": "O=C(O)c1ccc(-c2ccc3c(F)c(O)ccc3n2)c(Cl)c1", "note": "[Compound I-57]", "IC50": "< 0.1"}
{"molecule": "Cc1cc(C(=O)O)ccc1-c1ccc2c(F)c(O)ccc2n1", "note": "[Compound I-58]", "IC50": "< 0.1"}
{"molecule": "COc1cc(-c2ccc3cc(O)ccc3n2)ccc1C(=O)O", "note": "[Compound I-59, 4-(6-hydroxyquinolin-2-yl)-2-methoxybenzoic acid]", "IC50": "0.1 to 1"}
{"molecule": "O=C(O)c1ccc(-c2ccc3cc(O)ccc3n2)cc1O", "note": "[Compound I-60, 2-hydroxy-4-(6-hydroxyquinolin-2-yl)benzoic acid]", "IC50": "< 0.1"}
{"molecule": "O=[N+]([O-])c1cc(-c2ccc3cc(O)ccc3n2)ccc1O", "note": "[Compound I-61, 2-(4-hydroxy-3-nitrophenyl)quinolin-6-ol]", "IC50": "1 to 10"}
{"molecule": "O=C(O)c1ccc(Oc2c(-c3ccccc3)oc3cc(O)ccc3c2=O)cc1", "note": "[Compound V-2, 4-((7-hydroxy-4-oxo-2-phenyl-4H-chromen-3-yl)oxy)benzoic acid]", "IC50": "1 to 10"}
{"molecule": "CC(C)c1oc2cc(O)ccc2c(=O)c1Oc1ccc(C(=O)O)cc1", "note": "[Compound V-3, 4-(7-hydroxy-2-isopropyl-4-oxo-4H-chromen-3-yloxy)benzoic acid]", "IC50": "1 to 10"}
{"molecule": "O=C(O)c1ccc(Oc2c(C(F)(F)F)oc3cc(O)ccc3c2=S)cc1", "note": "[Compound V-4, 4-((7-hydroxy-4-thioxo-2-(trifluoromethyl)-4H-chromen-3-yl)oxy)benzoic acid]", "IC50": "0.1 to 1"}
{"molecule": "COc1cc(Oc2c(C(F)(F)F)oc3cc(O)ccc3c2=O)ccc1C(=O)O", "note": "[Compound V-5]", "IC50": "1 to 10"}
{"molecule": "O=c1c(Oc2ccc(-c3nnn[nH]3)cc2)c(C(F)(F)F)oc2cc(O)ccc12", "note": "[Compound V-6, 3-(4-(1H-tetrazol-5-yl)phenoxy)-7-hydroxy-2-(trifluoromethyl)-4H-chromen-4-one]", "IC50": "1 to 10"}
{"molecule": "O=C(O)c1ccc(Oc2c(-c3ccc(Cl)cc3)oc3cc(O)ccc3c2=O)cc1", "note": "[Compound V-7, 4-(2-(4-chlorophenyl)-7-hydroxy-4-oxo-4H-chromen-3-yloxy)benzoic acid]", "IC50": "1 to 10"}
{"molecule": "O=C(O)c1ccc(Oc2c(-c3ccc(F)cc3)oc3cc(O)ccc3c2=O)cc1", "note": "[Compound V-8, 4-(2-(4-fluorophenyl)-7-hydroxy-4-oxo-4H-chromen-3-yloxy)benzoic acid]", "IC50": "1 to 10"}
{"molecule": "COc1ccc(-c2oc3cc(O)ccc3c(=O)c2Oc2ccc(C(=O)O)cc2)cc1", "note": "[Compound V-9, 4-(7-hydroxy-2-(4-methoxyphenyl)-4-oxo-4H-chromen-3-yloxy)benzoic acid]", "IC50": "1 to 10"}
{"molecule": "O=C(O)c1ccc(Oc2c(-c3ccc(O)cc3)oc3cc(O)ccc3c2=O)cc1", "note": "[Compound V-10, 4-(7-hydroxy-2-(4-hydroxyphenyl)-4-oxo-4H-chromen-3-yloxy)benzoic acid]", "IC50": "1 to 10"}
{"molecule": "O=C(O)c1ccc(Sc2c(C(F)(F)F)oc3cc(O)ccc3c2=O)cc1", "note": "[Compound V-11, 4-(7-hydroxy-4-oxo-2-(trifluoromethyl)-4H-chromen-3-ylthio)benzoic acid]", "IC50": "1 to 10"}
